A polymer gas permeability compilation

| SMILES | CH4 permeability | CO2 permeability | H2 permeability | N2 permeability | O2 permeability |
| --- | --- | --- | --- | --- | --- |
| *c1c(C)cc(-c2cc(C)c(-c3cc(C)c(*)c(C)c3)cc2C)cc1C (repeat unit) | 15 Barrer | 360 Barrer | 350 Barrer | 16.5 Barrer | 67 Barrer |
| *c1c(C)cc(-c2cc(C)c(N3C(=O)c4ccc(C(=O)Oc5ccc(C(c6ccc(OC(=O)c7ccc8c(c7)C(=O)N(*)C8=O)cc6)(C(F)(F)F)C(F)(F)F)cc5)cc4C3=O)c(C)c2)cc1C (repeat unit) |  |  | 38 Barrer | 0.549 Barrer | 3.02 Barrer |
| *c1ccc(Oc2ccc(C(c3ccc(Oc4ccc(N5C(=O)c6ccc(C(c7ccc8c(c7)C(=O)N(*)C8=O)(C(F)(F)F)C(F)(F)F)cc6C5=O)cc4)cc3)(C(F)(F)F)C(F)(F)F)cc2)cc1 (repeat unit) | 0.515 Barrer | 19 Barrer | 46.7 Barrer | 0.982 Barrer | 5.27 Barrer |
| *Oc1ccc(S(=O)(=O)c2ccc(Oc3ccc(Oc4ccc(*)cc4)cc3)cc2)cc1 (repeat unit) | 0.179 Barrer | 4.3 Barrer |  | 0.196 Barrer | 1.1 Barrer |
| *CC=C(C*)[Si](OC(C)C)(OC(C)C)OC(C)C (repeat unit) | 263 Barrer | 1230 Barrer |  | 109 Barrer | 247 Barrer |
| *c1ccc(Cc2ccc(N3C(=O)c4ccc(Oc5ccc6c(c5)C(=O)N(*)C6=O)cc4C3=O)cc2)cc1 (repeat unit) |  |  | 5.62 Barrer | 0.028 Barrer | 0.261 Barrer |
| *C(=C(*)c1ccc2c(c1)C(C)(C)c1ccccc1-2)c1ccc(C(C)(C)C)cc1 (repeat unit) | 6600 Barrer | 11000 Barrer | 6300 Barrer | 2500 Barrer | 3500 Barrer |
| *Nc1ccc(Cc2ccc(NC(=O)CN3C(=O)c4ccc(C(*)=O)cc4C3=O)cc2)cc1 (repeat unit) | 0.01 Barrer | 0.264 Barrer |  | 0.017 Barrer | 0.065 Barrer |
| *=CC1CC(C=*)C2C(=O)N(C3CCCC3)C(=O)C12 (repeat unit) | 0.54 Barrer | 8.8 Barrer |  | 0.45 Barrer | 1.95 Barrer |
| *c1ccc(Cc2ccc(N3C(=O)c4ccc(S(=O)(=O)c5ccc6c(c5)C(=O)N(*)C6=O)cc4C3=O)cc2)cc1 (repeat unit) |  |  | 6.32 Barrer | 0.032 Barrer | 0.296 Barrer |
| *Oc1cc2c(cc1O*)C(=O)N(c1c(C)c(C)c(-n3c(=O)c4cc5oc6cc7c(cc6oc5cc4c3=O)C3(C(C)C)c4ccccc4C7(C(C)C)c4cc(*)c(*)cc43)c(C)c1C)C2=O (repeat unit) | 83.7 Barrer |  | 3430 Barrer | 87.4 Barrer | 542 Barrer |
| *CC(*)C(=O)OCC(F)(F)C(F)(F)C(F)(F)C(F)(F)C(F)(F)C(F)(F)C(F)(F)F (repeat unit) | 57 Barrer | 520 Barrer | 300 Barrer | 54 Barrer | 135 Barrer |
| *c1ccc2c(c1)Oc1ccc(C3(c4ccc5c(c4)Oc4ccc(*)cc4O5)c4ccccc4-c4ccccc43)cc1O2 (repeat unit) | 0.56 Barrer | 26.6 Barrer |  | 1.04 Barrer | 5.68 Barrer |
| *c1ccc2c(-c3c(OC(C)=O)ccc4cc(N5C(=O)c6ccc(Oc7ccc8c(c7)C(=O)N(*)C8=O)cc6C5=O)ccc34)c(OC(C)=O)ccc2c1 (repeat unit) | 0.05 Barrer | 2.38 Barrer | 3.18 Barrer | 0.1 Barrer | 0.61 Barrer |
| *CC(*)c1ccccc1 (repeat unit) | 0.785 Barrer | 12.4 Barrer | 26.1 Barrer | 0.53 Barrer | 2.9 Barrer |
| *C/C=C(/Cl)C* (repeat unit) | 3.28 Barrer | 25.6 Barrer | 20.6 Barrer | 2.07 Barrer | 4 Barrer |
| *C(Cl)CCCC(*)S(=O)(=O)Cl (repeat unit) |  |  | 13.3 Barrer | 0.955 Barrer | 3.29 Barrer |
| *C(=C(*)c1ccc([Si](C)(C)CCCCCCCC)cc1)c1ccc(C(C)(C)C)cc1 (repeat unit) |  | 100 Barrer |  | 7.5 Barrer | 26 Barrer |
| *c1ccc2c(-c3c(OC(C)=O)ccc4cc(N5C(=O)c6ccc(C(=O)c7ccc8c(c7)C(=O)N(*)C8=O)cc6C5=O)ccc34)c(OC(C)=O)ccc2c1 (repeat unit) | 0.08 Barrer | 3.55 Barrer | 4.67 Barrer | 0.15 Barrer | 0.92 Barrer |
| *C(=C(*)c1ccc2c(c1)C(C)(C)c1ccccc1-2)c1ccc(Br)cc1 (repeat unit) | 9300 Barrer | 17000 Barrer | 8700 Barrer | 3500 Barrer | 5000 Barrer |
| *C1C(*)C2CC1C1CC([Si](C)(C)C)C21 (repeat unit) | 1010 Barrer | 5300 Barrer | 2060 Barrer | 390 Barrer | 990 Barrer |
| *CC(*)c1ccc(Br)cc1 (repeat unit) | 0.48 Barrer | 8.5 Barrer |  | 0.32 Barrer | 1.9 Barrer |
| *CCO* (repeat unit) | 4.85 Barrer | 40.5 Barrer | 6.9 Barrer | 1.32 Barrer | 4.34 Barrer |
| *CC(*)(C)C(=O)OC (repeat unit) | 0.00565 Barrer | 0.35 Barrer | 4.1 Barrer | 0.0113 Barrer | 0.0885 Barrer |
| *CC(*)c1ccc(C(C)(C)C)cc1 (repeat unit) | 16.7 Barrer | 140 Barrer |  | 8.4 Barrer | 35.5 Barrer |
| *C(C(=O)OC(C)C)C(*)C(=O)OC(C)CC(C)C (repeat unit) |  |  | 156 Barrer | 14 Barrer | 45 Barrer |
| *Oc1ccc(N2C(=O)CCC23CCC(=O)N3c2ccc(Oc3c(F)c(F)c(COC(C4CCCC(C(OCc5c(F)c(F)c(*)c(F)c5F)(C(F)(F)F)C(F)(F)F)C4)(C(F)(F)F)C(F)(F)F)c(F)c3F)cc2)cc1 (repeat unit) | 0.25 Barrer | 7.1 Barrer | 21 Barrer | 0.46 Barrer | 2.2 Barrer |
| *Oc1c(C)cc(*)cc1C (repeat unit) | 4.1 Barrer | 66 Barrer | 68.7 Barrer | 3.5 Barrer | 14.6 Barrer |
| *c1ccc(N2C(=O)c3ccc([Si](C)(C)c4ccc5c(c4)C(=O)N(*)C5=O)cc3C2=O)cc1 (repeat unit) | 0.064 Barrer | 2.75 Barrer | 9.4 Barrer | 0.105 Barrer | 0.6 Barrer |
| *c1ccc(-c2ccc(Oc3ccc4c(c3)C3(CC4(C)C)CC(C)(C)c4ccc(Oc5ccc(-c6ccc(N7C(=O)c8ccc(C(c9ccc%10c(c9)C(=O)N(*)C%10=O)(C(F)(F)F)C(F)(F)F)cc8C7=O)cc6)cc5C(F)(F)F)cc43)c(C(F)(F)F)c2)cc1 (repeat unit) | 1.21 Barrer | 53 Barrer |  | 3.35 Barrer | 36.1 Barrer |
